Assay results published in ChEMBL document CHEMBL5303573, “Mapping human microbiome drug metabolism by gut bacteria and their genes” (Nature, 2019).

What was measured:
[1] = The drug is tested on Enterococcus faecalis strain: V583 for biotransformation. The drug concentrations were measured before and after a 12-h incubation by liquid-chromatography-coupled mass spectrometry (LC–MS); settings: 2 µM
[2] = The drug is tested on Collinsella aerofaciens strain: ATCC25986 for biotransformation. The drug concentrations were measured before and after a 12-h incubation by liquid-chromatography-coupled mass spectrometry (LC–MS); settings: 2 µM
[3] = The drug is tested on Blautia hansenii strain: DSM20583 for biotransformation. The drug concentrations were measured before and after a 12-h incubation by liquid-chromatography-coupled mass spectrometry (LC–MS); settings: 2 µM
[4] = The drug is tested on Bacteroides dorei strain: DSM17855 for biotransformation. The drug concentrations were measured before and after a 12-h incubation by liquid-chromatography-coupled mass spectrometry (LC–MS); settings: phocaeicola dorei, 2 µM
[5] = The drug is tested on Coprococcus comes strain: ATCC27758 for biotransformation. The drug concentrations were measured before and after a 12-h incubation by liquid-chromatography-coupled mass spectrometry (LC–MS); type: ADME; design: dose 2 uM, timepoint 0 vs 12 hours; settings: 2 µM
[6] = The drug is tested on Bacteroides fragilis strain: HMW610 for biotransformation. The drug concentrations were measured before and after a 12-h incubation by liquid-chromatography-coupled mass spectrometry (LC–MS); settings: 2 µM
[7] = The drug is tested on Eubacterium ventriosum strain: ATCC27560 for biotransformation. The drug concentrations were measured before and after a 12-h incubation by liquid-chromatography-coupled mass spectrometry (LC–MS); type: ADME; design: dose 2 uM, timepoint 0 vs 12 hours; settings: 2 µM
[8] = The drug is tested on Odoribacter splanchnicus strain: fecal isolate for biotransformation. The drug concentrations were measured before and after a 12-h incubation by liquid-chromatography-coupled mass spectrometry (LC–MS); settings: 2 µM
[9] = The drug is tested on Collinsella intestinalis strain: DSM13280 for biotransformation. The drug concentrations were measured before and after a 12-h incubation by liquid-chromatography-coupled mass spectrometry (LC–MS); settings: 2 µM
[10] = The drug is tested on Eubacterium rectale strain: ATCC33656 for biotransformation. The drug concentrations were measured before and after a 12-h incubation by liquid-chromatography-coupled mass spectrometry (LC–MS); settings: agathobacter rectalis, 2 µM
[11] = The drug is tested on Clostridium scindens strain: ATCC35704 for biotransformation. The drug concentrations were measured before and after a 12-h incubation by liquid-chromatography-coupled mass spectrometry (LC–MS); settings: 2 µM
[12] = The drug is tested on Eubacterium hallii strain: DSM3353 for biotransformation. The drug concentrations were measured before and after a 12-h incubation by liquid-chromatography-coupled mass spectrometry (LC–MS); settings: anaerobutyricum hallii, 2 µM
[13] = The drug is tested on Bacteroides pectinophilus strain: ATCC43243 for biotransformation. The drug concentrations were measured before and after a 12-h incubation by liquid-chromatography-coupled mass spectrometry (LC–MS); settings: 2 µM
[14] = The drug is tested on Bacteroides fragilis strain: ATCC43859 for biotransformation. The drug concentrations were measured before and after a 12-h incubation by liquid-chromatography-coupled mass spectrometry (LC–MS); settings: 2 µM
[15] = enterocloster bolteae, 12 h, 2 µM
Description: The drug is tested on Clostridium bolteae strain: ATCCBAA-613 for biotransformation. The drug concentrations were measured before and after a 12-h incubation by liquid-chromatography-coupled mass spectrometry (LC–MS)

[16] = The drug is tested on Escherichia coli strain: BW25113 for biotransformation. The drug concentrations were measured before and after a 12-h incubation by liquid-chromatography-coupled mass spectrometry (LC–MS); settings: 2 µM
[17] = segatella copri, 12 h, 2 µM
Description: The drug is tested on Prevotella copri strain: DSM18205 for biotransformation. The drug concentrations were measured before and after a 12-h incubation by liquid-chromatography-coupled mass spectrometry (LC–MS)

[18] = The drug is tested on Ruminococcus lactaris strain: ATCC29176 for biotransformation. The drug concentrations were measured before and after a 12-h incubation by liquid-chromatography-coupled mass spectrometry (LC–MS); settings: 2 µM
[19] = The drug is tested on Bacteroides cellulosilyticus strain: DSM14838 for biotransformation. The drug concentrations were measured before and after a 12-h incubation by liquid-chromatography-coupled mass spectrometry (LC–MS); settings: 2 µM

Row | Bacterial Biotransformation [1] | Bacterial Biotransformation [2] | Bacterial Biotransformation [3] | Bacterial Biotransformation [4] | Bacterial Biotransformation [5] | Bacterial Biotransformation [6] | Bacterial Biotransformation [7] | Bacterial Biotransformation [8] | Bacterial Biotransformation [9] | Bacterial Biotransformation [10] | Bacterial Biotransformation [11] | Bacterial Biotransformation [12] | Bacterial Biotransformation [13] | Bacterial Biotransformation [14] | Bacterial Biotransformation [15] | Bacterial Biotransformation [16] | Bacterial Biotransformation [17] | Bacterial Biotransformation [18] | Structure (SMILES) | Bacterial Biotransformation [19]
1 | Compound NOT metabolized | Compound NOT metabolized |  | Compound NOT metabolized | Compound NOT metabolized | Compound NOT metabolized | Compound NOT metabolized |  | Compound NOT metabolized | Compound NOT metabolized | Compound NOT metabolized | Compound NOT metabolized | Compound NOT metabolized | Compound NOT metabolized | Compound NOT metabolized | Compound NOT metabolized | Compound NOT metabolized | Compound NOT metabolized | O=C(Nc1ccccc1)OCC(CN1CCCCC1)OC(=O)Nc1ccccc1 (stereo unspecified) [DIPERODON] | 
2 | Compound NOT metabolized | Compound NOT metabolized | Compound metabolized | Compound metabolized | Compound NOT metabolized |  | Compound NOT metabolized |  | Compound NOT metabolized | Compound NOT metabolized | Compound NOT metabolized | Compound NOT metabolized |  |  |  | Compound NOT metabolized | Compound NOT metabolized |  | OCCN(CCO)c1nc(N2CCCCC2)c2nc(N(CCO)CCO)nc(N3CCCCC3)c2n1 [DIPYRIDAMOLE] | 
3 | Compound NOT metabolized |  | Compound NOT metabolized | Compound NOT metabolized | Compound NOT metabolized |  |  | Compound NOT metabolized | Compound NOT metabolized | Compound NOT metabolized | Compound NOT metabolized | Compound NOT metabolized | Compound NOT metabolized |  | Compound NOT metabolized |  | Compound NOT metabolized | Compound NOT metabolized | CC1Cc2ccccc2N1NC(=O)c1ccc(Cl)c(S(N)(=O)=O)c1 (stereo unspecified) [INDAPAMIDE] | 
4 | Compound NOT metabolized | Compound NOT metabolized |  | Compound NOT metabolized | Compound NOT metabolized | Compound NOT metabolized | Compound NOT metabolized |  | Compound NOT metabolized | Compound NOT metabolized | Compound NOT metabolized | Compound NOT metabolized | Compound NOT metabolized | Compound NOT metabolized | Compound NOT metabolized | Compound NOT metabolized | Compound NOT metabolized | Compound NOT metabolized | Nc1nnc(-c2cccc(Cl)c2Cl)c(N)n1 [LAMOTRIGINE] | 
5 | Compound NOT metabolized | Compound NOT metabolized | Compound NOT metabolized |  | Compound NOT metabolized | Compound metabolized | Compound NOT metabolized | Compound metabolized | Compound NOT metabolized | Compound NOT metabolized | Compound NOT metabolized | Compound NOT metabolized | Compound NOT metabolized | Compound metabolized | Compound NOT metabolized | Compound NOT metabolized | Compound NOT metabolized | Compound NOT metabolized | CC(C)[C@H]1CC[C@H](C(=O)N[C@H](Cc2ccccc2)C(=O)O)CC1 [NATEGLINIDE] | 

Second part, the molecule before the results:

Row | Structure (SMILES) | Bacterial Biotransformation [1] | Bacterial Biotransformation [2] | Bacterial Biotransformation [3] | Bacterial Biotransformation [4] | Bacterial Biotransformation [5] | Bacterial Biotransformation [6] | Bacterial Biotransformation [7] | Bacterial Biotransformation [8] | Bacterial Biotransformation [9] | Bacterial Biotransformation [10] | Bacterial Biotransformation [11] | Bacterial Biotransformation [12] | Bacterial Biotransformation [13] | Bacterial Biotransformation [14] | Bacterial Biotransformation [15] | Bacterial Biotransformation [16] | Bacterial Biotransformation [17] | Bacterial Biotransformation [18] | Bacterial Biotransformation [19]
6 | CN1CCc2c(c3ccccc3n2Cc2ccccc2)C1.CN1CCc2c(c3ccccc3n2Cc2ccccc2)C1.O=S(=O)(O)c1cccc2c(S(=O)(=O)O)cccc12 | Compound NOT metabolized | Compound NOT metabolized | Compound NOT metabolized | Compound NOT metabolized | Compound NOT metabolized | Compound NOT metabolized | Compound NOT metabolized | Compound NOT metabolized | Compound NOT metabolized | Compound NOT metabolized | Compound NOT metabolized | Compound NOT metabolized | Compound NOT metabolized | Compound NOT metabolized | Compound NOT metabolized | Compound NOT metabolized | Compound NOT metabolized |  | 
7 | CCN(CC)CCOC(=O)C1(C2CCCCC2)CCCCC1 [DICYCLOMINE] | Compound NOT metabolized | Compound NOT metabolized |  | Compound metabolized | Compound NOT metabolized | Compound NOT metabolized |  |  | Compound NOT metabolized |  |  | Compound NOT metabolized | Compound NOT metabolized | Compound NOT metabolized | Compound NOT metabolized |  | Compound NOT metabolized | Compound NOT metabolized | 
8 | CNCC[C@H](Oc1cccc2ccccc12)c1cccs1 [DULOXETINE] | Compound NOT metabolized | Compound metabolized | Compound metabolized | Compound metabolized |  |  | Compound NOT metabolized |  | Compound NOT metabolized | Compound NOT metabolized | Compound NOT metabolized |  | Compound NOT metabolized | Compound NOT metabolized | Compound NOT metabolized | Compound metabolized | Compound metabolized |  | 
9 | COCCc1ccc(OCC(O)CNC(C)C)cc1.COCCc1ccc(OCC(O)CNC(C)C)cc1.O=C(O)C(O)C(O)C(=O)O (stereo unspecified) [METOPROLOL TARTRATE] | Compound NOT metabolized | Compound NOT metabolized |  | Compound NOT metabolized | Compound NOT metabolized | Compound NOT metabolized | Compound NOT metabolized | Compound NOT metabolized | Compound NOT metabolized | Compound NOT metabolized | Compound NOT metabolized | Compound NOT metabolized | Compound NOT metabolized | Compound metabolized | Compound NOT metabolized | Compound NOT metabolized |  | Compound NOT metabolized | 
10 | CN(C)C(=O)Oc1cccc([N+](C)(C)C)c1.[Br-] [NEOSTIGMINE BROMIDE] | Compound NOT metabolized | Compound NOT metabolized |  | Compound metabolized | Compound NOT metabolized |  | Compound NOT metabolized | Compound NOT metabolized | Compound NOT metabolized | Compound NOT metabolized | Compound NOT metabolized |  | Compound NOT metabolized |  | Compound NOT metabolized | Compound NOT metabolized |  | Compound NOT metabolized | Compound NOT metabolized
